Literature values as cited in US20140187505A1, “Cardiac Glycosides to Treat Cystic Fibrosis and Other IL-8 Dependent Disorders” (priority 2002, published 2014).
Like-named read-outs stand apart in the source and are kept apart here.

How the values were obtained:
[1] = eluent acetonitrile/water 45:55; cited from earlier work
[2] = mobile phase: methanol/water 30:70; cited from earlier work
[3] = octanol/water (20 mM TRIS-HCl, pH 7.4), cited from earlier work
[4] = system: guinea-pig heart Na^+-K^+-ATPase; settings: cited from earlier work

| Compound | K retentions for reversed-phase high pressure liquid chromatography [1] | RM values (lipophilicity, reversed-phase thin layer chromatography) [2] | P (partition coefficient in octanol/water system) [3] | ID50 [4] | P (partition coefficient in octanol/water system) ([3]; listed as B-methyl digitoxin) | R values for reversed-phase thin layer chromatography [2] |
| --- | --- | --- | --- | --- | --- | --- |
| CC(=O)O[C@@H]1C[C@H]2[C@@H](CC[C@@H]3C[C@@H](O[C@H]4C[C@H](O)[C@H](O[C@H]5C[C@H](O)[C@H](O[C@H]6C[C@H](O)[C@H](O)[C@@H](C)O6)[C@@H](C)O5)[C@@H](C)O4)CC[C@@]32C)[C@@]2(O)CC[C@H](C3=CC(=O)OC3)[C@@]12C [12-Acetyldigoxin] | 1.60 | 0.89 | 195.0 ± 17.5 | 20.90 ± 0.98 ×10^−4 mol l^−1 |  |  |
| CO[C@H]1C[C@H](O[C@H]2CC[C@]3(C=O)[C@H]4CC[C@]5(C)[C@@H](C6=CC(=O)OC6)CC[C@]5(O)[C@@H]4CC[C@]3(O)C2)O[C@H](C)[C@H]1O [k-Strophanthin-α] | 0.79 | −0.09 | 4.40 ± 0.3 | 1.29 ± 0.14 ×10^−4 mol l^−1 |  |  |
| β-Acetyldigoxin | 1.25 | 0.70 | 99.2 ± 4.1 | 1.60 ± 0.02 ×10^−4 mol l^−1 |  |  |
| COC1C(O)CC(OC2C(O)CC(OC3C(O)CC(OC4CCC5(C)C(CCC6C5CCC5(C)C(C7=CC(=O)OC7)CCC65O)C4)OC3C)OC2C)OC1C (stereo not drawn) [β-Methyldigitoxin] | 8.28 | 1.71 | 1300.0 ± 227.0 | 0.40 ± 0.03 ×10^−4 mol l^−1 | 1300 |  |
| CO[C@H]1C[C@H](O[C@H]2CC[C@]3(C=O)[C@H]4CC[C@]5(C)[C@@H](C6=CC(=O)OC6)CC[C@]5(O)[C@@H]4CC[C@]3(O)C2)O[C@H](C)[C@H]1O[C@@H]1O[C@H](CO[C@@H]2O[C@H](CO)[C@@H](O)[C@H](O)[C@H]2O)[C@@H](O)[C@H](O)[C@H]1O [k-Strophanthin-γ] | 0.21 | −0.62 | 0.15 ± 0.07 | 2.47 ± 0.25 ×10^−4 mol l^−1 |  |  |
| C[C@H]1O[C@@H](O[C@H]2[C@@H](O)C[C@H](O[C@H]3[C@@H](O)C[C@H](O[C@H]4CC[C@@]5(C)[C@H](CC[C@@H]6[C@@H]5CC[C@]5(C)[C@H](C7COC(=O)C7)CC[C@]65O)C4)O[C@@H]3C)O[C@@H]2C)C[C@H](O)[C@@H]1O (some centres unmarked) [Dihydro-digitoxin] | 3.40 | 1.42 | 800.0 ± 112.0 | 32.40 ± 2.85 ×10^−4 mol l^−1 |  |  |
| CO[C@H]1C[C@H](O[C@H]2CC[C@]3(C=O)[C@H]4CC[C@]5(C)[C@@H](C6=CC(=O)OC6)CC[C@]5(O)[C@@H]4CC[C@]3(O)C2)O[C@H](C)[C@H]1O[C@@H]1O[C@H](CO)[C@@H](O)[C@H](O)[C@H]1O [k-Strophanthin-β] | 0.22 | −0.50 | 0.11 ± 0.01 | 2.51 ± 0.12 ×10^−4 mol l^−1 |  |  |
| α,β-Dimethyldigoxin | 2.76 | 0.94 | 138.0 ± 12.1 | 1.28 ± 0.06 ×10^−4 mol l^−1 |  |  |
| C[C@@H]1O[C@@H](O[C@H]2C[C@@H](O)[C@]3(CO)[C@H]4[C@H](O)C[C@]5(C)[C@@H]([C@@H]6COC(=O)C6)CC[C@]5(O)[C@@H]4CC[C@]3(O)C2)[C@H](O)[C@H](O)[C@H]1O [Dihydro-ouabain] | 0.15 | −0.71 | 0.20 ± 0.00 | 45.50 ± 3.90 ×10^−4 mol l^−1 |  |  |
| CC(=O)O[C@H]1[C@@H](OC(C)=O)C[C@H](O[C@H]2[C@@H](OC(C)=O)C[C@H](O[C@H]3[C@@H](OC(C)=O)C[C@H](O[C@H]4CC[C@@]5(C)[C@H](CC[C@@H]6[C@@H]5CC[C@]5(C)[C@@H](C7=CC(=O)OC7)[C@@H](OC(C)=O)C[C@]65O)C4)O[C@@H]3C)O[C@@H]2C)O[C@@H]1C [Pentaacetylgitoxin] | 49.45 | 1.86 | 2890.0 ± 668.0 | 112.00 ± 10.70 ×10^−4 mol l^−1 |  |  |
| C[C@]12CC[C@H]3[C@@H](CC[C@]4(O)C[C@@H](O)CC[C@]34C=O)[C@@]1(O)CC[C@@H]2C1=CC(=O)OC1 [k-Strophanthidin] | 0.42 |  | 3.60 ± 0.5 | 17.80 ± 0.81 ×10^−4 mol l^−1 |  | −0.14 |
| CC(=O)O[C@H]1C[C@]2(O)[C@@H]3CC[C@@H]4C[C@@H](O[C@H]5C[C@H](O)[C@H](O[C@H]6C[C@H](O)[C@H](O[C@H]7C[C@H](O)[C@H](O)[C@@H](C)O7)[C@@H](C)O6)[C@@H](C)O5)CC[C@]4(C)[C@H]3CC[C@]2(C)[C@H]1C1=CC(=O)OC1 [16-Acetylgitoxin] | 2.27 | 0.89 | 144.0 ± 32.8 | 0.85 ± 0.01 ×10^−4 mol l^−1 |  |  |
| 12-Acetyl-β-methyldigoxin | 4.04 | 1.26 | 746.0 ± 71.3 | 25.55 ± 1.70 ×10^−4 mol l^−1 |  |  |
| α-Methyldigoxin | 1.13 | 0.54 | 56.6 ± 9.8 | 2.23 ± 0.11 ×10^−4 mol l^−1 |  |  |
| C[C@]12CC[C@H](O)C[C@H]1CC[C@@H]1[C@@H]2CC[C@]2(C)[C@@H](C3=CC(=O)OC3)[C@@H](O)C[C@]12O [Gitoxigenin] | 0.67 | 0.38 | 44.1 ± 1.8 | 21.37 ± 0.97 ×10^−4 mol l^−1 |  |  |
| C[C@H]1O[C@@H](O[C@H]2[C@@H](O)C[C@H](O[C@H]3[C@@H](O)C[C@H](O[C@H]4CC[C@@]5(C)[C@H](CC[C@@H]6[C@@H]5CC[C@]5(C)[C@@H](C7=CC(=O)OC7)[C@@H](O)C[C@]65O)C4)O[C@@H]3C)O[C@@H]2C)C[C@H](O)[C@@H]1O [Gitoxin] | 1.28 | 0.68 | 48.0 ± 11.2 | 2.55 ± 0.14 ×10^−4 mol l^−1 |  |  |
| CO[C@H]1[C@@H](O)C[C@H](O[C@H]2[C@@H](O)C[C@H](O[C@H]3[C@@H](O)C[C@H](O[C@H]4CC[C@@]5(C)[C@H](CC[C@@H]6[C@@H]5C[C@@H](O)[C@]5(C)[C@@H](C7=CC(=O)OC7)CC[C@]65O)C4)O[C@@H]3C)O[C@@H]2C)O[C@@H]1C [β-Methyldigoxin] | 1.19 |  | 63.3 ± 20.9 | 1.55 ± 0.06 ×10^−4 mol l^−1 |  |  |
| Dihydro-digoxin | 0.51 | 0.24 |  | 40.90 ± 3.35 ×10^−4 mol l^−1 |  |  |
